# Reference: patent US8148347B2, “Inhibition of interaction of PSD93 and PSDS95 with nNOS and NMDA receptors” (The Johns Hopkins University, priority 2000, dated 2012)
# Legend:
# Male Sprague-Dawley rats [1] = assay: tests of locomotor function (placing, grasping, righting reflex) and general behaviors; format: in vivo, rat; details: mean (SD)
# Protocol: The effects of ODNs on locomotor function were examined using the following methods.^52 The animals were organized randomly into six groups: control (saline); 12.5 antisense ODN; 25 μg antisense ODN; 50 μg antisense ODN; 50 μg sense ODN; 50 μg missense ODN. The rats were pretreated with ODNs or saline in the manner described above. On the fifth day, 10 μl of saline was injected intrathecally for each rat. In some saline or antisense ODN (50 μg)-treated rats, fresh NMDA solution (1.25 μg/10 μl) was injected intrathecally. The following tests were performed with the experimenter blind to which group was treated with the agents: (1) Placing reflex: The rat was held with the hind limbs slightly lower than the forelimbs, and the dorsal surfaces of the hind paws were brought into contact with the edge of a table. The experimenter recorded whether the hind paws were placed on the table surface reflexively; (2) Grasping reflex: The rat was placed on a wire grid and the experimenter recorded whether the hind paws grasped the wire on contact; (3) Righting reflex: The rat was placed on its back on a flat surface and the experimenter noted whether it immediately assumed the normal upright position. […] In addition, the rat general behaviors including spontaneous activity were observed.
# Male Sprague-Dawley rats [2] = assay: radiant heat tail-flick test, baseline and NMDA-induced thermal hyperalgesia; format: in vivo, rat; details: for percentage change of TF latency (baseline tail-flick latency): without NMDA, compared to the control group
# Description: To examine whether PSD-95/SAP90 was required for thermal hyperalgesia triggered through NMDA receptor activation, we made an antisense oligonucletide (OND) corresponding to the PDZ domain nucleotides 241 to 258 (5′-[…]-3′; SEQ ID NO: 1) of rat PSD-95/SAP90 mRNA, as well as the sense OND and missense OND (5′-[…]-3′; SEQ ID NO: 2). All of the ONDs were compared to the Gene Bank database (GenBank accession number M96853) and found not to be complementary to any registered nucleotide sequences. The effects of antisense, sense and missense ONDs on baseline and NMDA-induced tail-flick latencies were assessed. […] To identify that NMDA-induced thermal hyperalgesia was produced specifically through NMDA receptor activation but not non-NMDA receptor activation, we observed the effects of a selective NMDA receptor antagonist, MK-801, and a selective non-NMDA receptor antagonist, DNQX, on NMDA-induced facilitation of the tail-flick reflex. […] In addition, motor weakness or dysfunction was not observed in locomotor tests (including placing reflex, grasping reflex and righting reflex) in any of the treated animals including the antisense groups (data not shown).
# Animal preparation and behavioral testing. All experiments were carried out with the approval of the Animal Care Committee at the Johns Hopkins University and were consistent with the ethical guidelines of the National Institutes of Health and the International Association for the Study of Pain. Male Sprague-Dawley rats (250-300 g) were implanted with an intrathecal PE-10 catheter into the subarachnoid space at the rostral level of the spinal cord lumbar enlargement through an incision at the atlanto-occipital membrane according to the method as described.^25,27 One week or more later, the rats were injected intrathecally with saline or ONDs every 24 h for 4 days. On the fifth day, saline, NMDA, MK-801+NMDA or DNQX+NMDA was given intrathecally. Nociception was evaluated by the radiant heat tail-flick test. The doses and time point of maximal effect of NMDA used in the present study were determined based on a previous study.^24 The tail-flick apparatus (Model 33B Tail Flick Analgesy Meter, IITC Life Science, Woodland Hills, Calif., USA) generated a beam of radiant heat that was focused on the underside of the tail, 5 cm from the tip. A cut-off time latency of 13.5 s was used to avoid tissue damage to the tail. Nociception was assessed by the time required to induce tail-flick after applying radiant heat to the skin of the tail. The latency of reflexive removal of the tail from the heat was measured automatically to the nearest 0.01 s. Tail-flick latency was measured five times, and the basal latency was defined as the mean. Tail-flick data were expressed as percentage change calculated by the formula: (trial latency−baseline latency)/(baseline latency)×100%. Finally, PE-10 catheter position from each animal was confirmed when lumbar enlargement segments were removed for western blot analysis. PCR analysis of PSD-95/SAP90 in rat spinal cord. The cDNA sequences encoding portions of the PSD-95/SAP90 were amplified using the following synthetic OND primers: PSD1 (5′-[…]-3′; SEQ ID NO: 3) and PSD2 (5′-[…]-3′; SEQ ID NO: 4) for amplification of PSD-95/SAP90 codon positions 789-1525. RNA samples (1 μg) from rat spinal cord, brain and muscle were reverse transcribed to generate first-strand cDNA. The PCR reactions were performed for 25 cycles. Each cycle included 30 s at 94° C., 30 s at 55° C., and 30 s at 71° C. The PCR products were directly cloned into the TA cloning vector (Invitrogen Co., San Diego, Calif., USA) and verified by automatic DNA sequencing. Fusion protein construction and preparation. cDNA sequence encoding portion of PSD-95/SAP90 was amplified by PCR and subcloned in-frame into PGEX-2T (GIBCO, Rockville, Md., USA) via the BamHI and EcoRI restriction digest sites. […]
# rats = assay: rat neuropathic pain model, unilateral L5 spinal nerve ligation, hind paw withdrawal; format: in vivo; details: 50 μg/10 μl intrathecal every 24 h for 4 days
# Protocol: The effect of the deficiency of PSD-95/SAP90 on mechanical and thermal hyperalgesia in a rat neuropathic pain model was observed. The antisense oligonucleotide (OND) specifically against PSD-95/SAP90 was employed to reduce the expression of PSD-95/SAP90 in spinal cord. The rats were injected intrathecally with saline (10 μl), antisense OND (50 μg/10 μl) or sense OND (50 μg/10 μl) every 24 h for 4 days. The unilateral L5 spinal nerve was ligated. Hind paw withdrawal response to mechanical or heat stimuli was conducted 1 day prior to the surgery and at 3, 5, 7 and 9 days postoperatively. In the saline-treated group, mechanical and thermal hyperalgesia developed within 3 days and persisted for 9 days or longer. […] PSD-95/SAP90 is likely involved in the molecular mechanism of the production of hyperalgesia in neuropathic pain triggered via NMDA receptor activation.
# [3] = 12.5 μg, count of normal reflexes in five trials
# [4] = 25 μg, count of normal reflexes in five trials
# [5] = 50 μg AS + 1.25 μg NMDA, five trials
# [6] = 50 μg, count of normal reflexes in five trials
# [7] = 50 μg/10 μl intrathecal every 24 h for 4 days + NMDA
substance,measurement,setting,value
"5′-TGTGATCTCCTCATACTC-3′ (DNA, backbone and methylation of C not given here; listed as Rattus rattus) [antisense oligonucletide corresponding to the PDZ domain nucleotides 241 to 258 of rat PSD-95/SAP90 mRNA]",Grasping,Male Sprague-Dawley rats [1]; [3],5 (0)
same,Placing,Male Sprague-Dawley rats [1]; [3],5 (0)
same,Righting,Male Sprague-Dawley rats [1]; [3],5 (0)
same,Grasping,Male Sprague-Dawley rats [1]; [4],5 (0)
same,Placing,Male Sprague-Dawley rats [1]; [4],5 (0)
same,Righting,Male Sprague-Dawley rats [1]; [4],5 (0)
same,Grasping,Male Sprague-Dawley rats [1]; [5],4.83 (0.41)
same,Placing,Male Sprague-Dawley rats [1]; [5],4.83 (0.41)
same,Righting,Male Sprague-Dawley rats [1]; [5],4.83 (0.41)
same,Grasping,Male Sprague-Dawley rats [1]; [6],4.67 (0.52)
same,Placing,Male Sprague-Dawley rats [1]; [6],4.83 (0.41)
same,Righting,Male Sprague-Dawley rats [1]; [6],4.83 (0.41)
same,prevention of the NMDA-induced decrease of the tail-flick latency,Male Sprague-Dawley rats [2]; 25 μg intrathecal,55%
same,NMDA-produced facilitation of the tail-flick reflex after pretreatment,Male Sprague-Dawley rats [2]; 25 μg/10 μl and 50 μg/10 μl every 24 h for 4 days,attenuated
same,ΔTF latency (%),Male Sprague-Dawley rats [2]; 25 μg/10 μl intrathecal every 24 h for 4 days + NMDA,−11.65%
same,prevention of the NMDA-induced decrease of the tail-flick latency,Male Sprague-Dawley rats [2]; 50 μg intrathecal,82%
same,ΔTF latency (%),Male Sprague-Dawley rats [2]; [7],−4.72%
same,percentage change of TF latency (baseline tail-flick latency),Male Sprague-Dawley rats [2],0.44±1.95%
same,tail flick latency in response to NMDA stimulation after recovery,Male Sprague-Dawley rats [2]; recovery for an additional four days after treatment,returned to normal
same,onset of the mechanical hyperalgesia,rats,significant delay
same,onset of the thermal hyperalgesia,rats,significant delay
"5′-AAGCCCTTGTTCCCATTT-3′ (DNA, backbone and methylation of C not given here; listed as Rattus rattus) [MS, missense OND control, reference compound]",Grasping,Male Sprague-Dawley rats [1]; [6],5 (0)
same,Placing,Male Sprague-Dawley rats [1]; [6],5 (0)
same,Righting,Male Sprague-Dawley rats [1]; [6],5 (0)
same,NMDA-produced facilitation of the tail-flick reflex after pretreatment (attenuated or not),Male Sprague-Dawley rats [2]; 50 μg/10 μl every 24 h for 4 days,not
same,ΔTF latency (%),Male Sprague-Dawley rats [2]; [7],−20.96%
same,percentage change of TF latency (baseline tail-flick latency),Male Sprague-Dawley rats [2],−2.05±1.57%
